The subject of one data set is S. aureus ATCC 43300. As to the kind of experiment: microbe, parasite or virus in culture. It is filed as cell-based, Staphylococcus aureus. The conditions noted are these: for Minimum inhibitory concentration: S. aureus ATCC 43300, CaMHB, 5 × 10^5 CFU mL^−1, 37 °C, 20 h, visual, duplicate.
The subject of the next data set is human red blood cells. As to the kind of experiment: Hemolysis assay. The class given is cell-based.
A further data set relates to E.coli ATCC 259922. As to the kind of experiment: Antimicrobial assay. The class given is cell-based, Escherichia coli. The following applies: CaMHB, 5 × 10^5 CFU mL^−1, 37 °C, 20 h, visual, duplicate.
The next data set deals with B. subtilis ATCC 6051. As to the kind of experiment: microbe, parasite or virus in culture. It is filed as cell-based, Bacillus subtilis. The following applies: for Minimum inhibitory concentration: B. subtilis ATCC 6051, CaMHB, 5 × 10^5 CFU mL^−1, 37 °C, 20 h, visual, duplicate.
The next data set concerns HEK293 cells. As to the kind of experiment: Cytotoxicity assay. It is filed as cell-based. The following applies: HEK293, 24 h at 37 °C, resazurin fluorescence; two independent experiments of duplicate assays (n = 2). A general note: The colour change of resazurin is a common sign of viable cells or microbes.
The subject of data set [1] is Gram negative and Gram-positive bacterial pathogens. As to the kind of experiment: Antimicrobial assay, summary over the bacterial panel. The class given is cell-based. The following applies: range over both strains.

Values after ≈ are worked out from the molar mass of the structure shown. Values joined by “and” are separate entries in the source; they are usually repeats but may differ in a detail not shown here. Equal values may be shown once. Where a SMILES comes first, the peptide text is derived from it. Bridges are numbered along the chain shown (N, C = ends). Where no end group is shown, it is not given here. [ ]: non-standard residue; d: D form. The star is where a group is joined. X1 = CC[C@H](C)CCCCC(=O)*; Dab = NCC[C@H](N)C(=O)O

For AGTKEWLNKAKDFIKEKGLGMLSAAANAALN [Nc3b], the Minimum inhibitory concentration with S. aureus ATCC 43300, in the data set on E.coli ATCC 259922 and with B. subtilis ATCC 6051 was greater than 40 µM throughout. The “Hemolysis at fixed concentration” value in the data set on human red blood cells (100 μM peptide) and with human red blood cells (300 μM peptide) was “no hemolysis” each time.

Consider FLGALLKIGAKLLPSVVGLFKKKQQ [Na1b], for which the Minimum inhibitory concentration was in the range of 0.3 to 5.9 µM in the data set with S. aureus ATCC 43300, 5.9 to 11.8 µM in the data set with E.coli ATCC 259922 and 0.18 to 2.9 µM in the data set with B. subtilis ATCC 6051. In addition, in the data set with HEK293 cells, the “Cytotoxicity (CC50), 50% death of HEK293 cells” value (shortened to “Cytotoxicity (CC50), 50% death”) lay within 4.5 to 5.9 µM.

As to FVKELWDKVKKMGSAAWSAAKGAFA [Nc2a], the Minimum inhibitory concentration in the data set on S. aureus ATCC 43300 was greater than 40 µM; with E.coli ATCC 259922, 11.7 to 46.9 µM; in the data set on B. subtilis ATCC 6051, 5.9 to 11.8 µM. For the same molecule, the “Cytotoxicity (CC50), 50% death” value in the data set on HEK293 cells is > 40 µM and 48.2 to 56.9 µM. In the data set with human red blood cells (100 μM peptide), the “Hemolysis at fixed concentration” value is recorded as “no hemolysis”.

On to `CN[C@H](CC(C)C)C(=O)N[C@H]1C(=O)N[C@@H](CC(N)=O)C(=O)N[C@H]2C(=O)N[C@H]3C(=O)N[C@H](C(=O)N[C@H](C(=O)O)c4cc(O)cc(O)c4-c4cc3ccc4O)[C@H](O)c3ccc(c(Cl)c3)Oc3cc2cc(c3O[C@@H]2O[C@H](CO)[C@@H](O)[C@H](O)[C@H]2O[C@H]2C[C@](C)(N)[C@H](O)[C@H](C)O2)Oc2ccc(cc2Cl)[C@H]1O` [Vancomycin, vancomycin, reference compound], for which the MIC is 0.69 to 1.38 µM (≈ 1 to 2 µg/mL) in the data set on S. aureus ATCC 43300 (Staphylococcus aureus, ATCC43300, 20 h, read-out: Minimum inhibitory concentration) and 0.17 to 0.35 µM (≈ 0.246 to 0.507 µg/mL) with B. subtilis ATCC 6051 (Bacillus subtilis, ATCC6051, 20 h, read-out: Minimum inhibitory concentration).

For GWKDWLNKAKDFIKEKGPEILRAAANAAIN [Nc3a], the Minimum inhibitory concentration is 23.7 to 47.4 µM in the data set on S. aureus ATCC 43300, 2.3 to 4.7 µM in the data set on E.coli ATCC 259922 and 1.48 to 2.9 µM in the data set with B. subtilis ATCC 6051. The “Hemolysis at fixed concentration” value with human red blood cells (100 μM peptide) is “no hemolysis”.

As to FWGAAAKMLGKALPGLISMFQKN [Nc1a], the results for the Minimum inhibitory concentration in the data set with S. aureus ATCC 43300, in the data set on E.coli ATCC 259922 and in the data set with B. subtilis ATCC 6051 were 2.9 to 5.9 µM, 25.8 to 51.6 µM and 1.48 to 5.9 µM, respectively. In addition, in the data set on HEK293 cells, the “Cytotoxicity (CC50), 50% death” value was in the range of 12.6 to 13.5 µM. Besides, the “MIC against Gram-positive bacteria (Staphylococcus aureus and B. subtilis)” value in data set [1] was 1.48 to 5.9 µM.

As to `CC[C@H](C)CCCCC(=O)N[C@@H](CCN)C(=O)N[C@H](C(=O)N[C@@H](CCN)C(=O)N[C@H]1CCNC(=O)[C@H]([C@@H](C)O)NC(=O)[C@H](CCN)NC(=O)[C@H](CCN)NC(=O)[C@H](CC(C)C)NC(=O)[C@@H](CC(C)C)NC(=O)[C@H](CCN)NC1=O)[C@@H](C)O` [Colistin, colistin, reference compound] (X1-[Dab]T[Dab][Dab][Dab][dL]L[Dab][Dab]T; lactam 4-C (inferred); N-terminus assumed), the Minimum inhibitory concentration with E.coli ATCC 259922 lay in the range of 0.02 to 0.11 µM.

The values above are taken from PMC10167921 (Biochemical pharmacology, 2021).
